SMILES strings stand for the structures. Values after ≈ are worked out from the molar mass of the structure shown.

What all share (assay): MIC by agar-dilution, Diagnostic Sensitivity Test agar
Common to all, as to type: cell-based

One assay has as its system E.coli DCO (341098). To be noted: Escherichia coli, inoculum 10^4 CFU/spot. From the text: (§1) The following results were obtained for representative compounds on a standard in vitro test system using Diagnostic Sensitivity Test agar medium. The antibacterial activity is described in terms of the minimum inhibitory concentration (MIC) determined by the agar-dilution technique with an inoculum size of 10^4 CFU/spot.

A further assay deals with Strep.pyogenes (681018). To be noted: Streptococcus pyogenes, inoculum 10^4 CFU/spot.
Excerpt: as §1

The subject of another assay is Pr.morganii (433001). To be noted: Morganella morganii, inoculum 10^4 CFU/spot.
Excerpt: as §1

Assay [1] concerns B. fragilis AMP R (542008). To be noted: Bacteroides fragilis, inoculum 10^4 CFU/spot.
Excerpt: as §1

The test system of the next assay is S.dublin (369001). To be noted: Salmonella enterica, inoculum 10^4 CFU/spot.
Excerpt: as §1

Assay [2] has as its system P.aeruginosa PU21 (101028). The settings on record: Pseudomonas aeruginosa, inoculum 10^4 CFU/spot.
Excerpt: as §1

The test system of a further assay is St.aureus 147N (601052). The settings on record: Staphylococcus aureus, inoculum 10^4 CFU/spot.
Excerpt: as §1

For a further assay, the system named is Serr.marcesens (421003). To be noted: inoculum 10^4 CFU/spot.
Excerpt: as §1

The subject of assay [3] is Ent.cloacae P99^- (401054). The settings on record: Enterobacter cloacae.
Excerpt: as §1

The test system of assay [4] is P. aeruginosa 18S (101024). The settings on record: Pseudomonas aeruginosa, inoculum 10^4 CFU/spot.
Excerpt: as §1

As for `C[C@@H](O)[C@H]1C(=O)N2C(C(=O)O)=C(S[C@@H]3CN[C@H](C(=O)Nc4cc(O)c(O)c(C#N)c4)C3)[C@H](C)[C@H]12` [Example 2, (1R,5S,6S,8R,2'S,4'S)-2-(2-(5-Cyano-3,4-dihydroxyphenylcarbamoyl)pyrrolidin-4-ylthio)-6-(1-hydroxyethyl)-1-methyl-carbapenem-3-carboxylic acid], the MIC turned out to be 0.015 µg/mL (≈ 0.0307 µM) with E.coli DCO (341098); 8 ng/mL (≈ 0.0164 µM) in the assay on Strep.pyogenes (681018); 0.125 µg/mL (≈ 0.256 µM) in the assay on Pr.morganii (433001); 0.25 µg/mL (≈ 0.512 µM) in assay [1]; 8 ng/mL (≈ 0.0164 µM) against S.dublin (369001); 0.25 µg/mL (≈ 0.512 µM) in assay [2]. Also, the MIC with St.aureus 147N (601052) stood at 0.25 µg/mL (≈ 0.512 µM); in the assay with Serr.marcesens (421003) it was 0.125 µg/mL (≈ 0.256 µM); in [3], 0.015 µg/mL (≈ 0.0307 µM); in assay [4] it was 0.06 µg/mL (≈ 0.123 µM).

The record behind these values is patent EP0584085B1, “ANTIBIOTIC CARBAPENEM DERIVATIVES” (ZENECA LIMITED, priority 1991, dated 1992).
